# Data reported in patent publication US10532066B2, “Surfactant lipids, compositions thereof, and uses thereof” (National Jewish Health, priority 2007, dated 2020).
# How the values were obtained:
# [1] = test system: multiple TLRs; assay: Activation of primary bronchial epithelial cells by multiple TLRs (IL-8, Example 9); assay type: cell-based, human; details: 200 ug/ml POPG, 24 h
# Description: Monolayers of normal human bronchial epithelial cells were stimulated with the TLR3 agonist, polyI:C (0.1 ug/ml); the TLR5 agonist, flagellin (10 ng/ml) and the TLR7/8 agonist polyU (100 ug/ml) for 24 h in either the absence or presence of 200 ug/ml POPG, or POPC as indicated. Cultures were also treated with POPG or POPC alone, as additional controls. After 24 h the medium was harvested and centrifuged to remove non-adherent cells, and processed to detect IL-8 production by ELISA. Values shown in FIG. 33 are averages±SE for 3 independent experiments.
# [2] = test system: Respiratory Syncytial Virus (RSV); assay: RSV replication in BEAS2B cells (anti-RSV antibody staining); assay type: cell-based; details: multiplicity 3, 72 h, POPG 200 ug/ml
# Description: Monolayers of BEAS2B and NHBE cells were infected with RSV at a multiplicity of 3 for 72 h. Infections were performed on cells in either the absence or the presence of POPG (200 ug/ml). The cell monolayers were fixed and stained with goat anti-human RSV antibody conjugated with horseradish peroxidase. The presence of the antibody was detected with diaminobenzamidine. Controls consisted of cell layers not exposed to the virus or exposed to POPG in the absence of virus as indicated.
# [3] = test system: BALB/c mice; assay: Sepsis model: intravenous LPS, intratracheal phospholipids; assay type: in vivo, mouse; details: LPS 50 μg i.v., phospholipids 50 μg intratracheal, 3 h
# Description: FIG. 10. Anionic phospholipids modulate lung inflammation induced by intravenously administered LPS. Phospholipids were dried under nitrogen and hydrated, and liposomes were formed using a Liposofast™. […] At the same time, LPS (50 μg) in 200 μl of PBS was intravenously administered to mice.
# Next, the effect of phospholipids were examined in a sepsis model in mice. LPS (50 μG/200 μl) was intravenously administered to mice via the tail vein and phospholipids were administered intratracheally at the same time. Three hours after stimulation, BALF was collected (FIG. 10).
# [4] = test system: TLR8; assay: TLR agonist IL-8 production in primary human neutrophils, TLR8; assay type: cell-based; details: polyU, 5-24 h
# Description: (§1) In this experiment, multiple TLRs were stimulated with defined TLR agonists for 5-24 h as indicated, and the IL-8 production was measured. In each case the maximal stimulation by agonist is set at 100% and the antagonism by POPG is expressed as the relative % response. The Controls consist of no treatment, or treatment with POPG, in the absence of agonist as indicated. The agonists for the TLRs consist of Pam3Cys for TLR1/2, double stranded RNA (poly IC) for TLR3, Gram-negative lipopolysaccharide (LPS) for TLR4, and single stranded RNA (polyU) for TLR7/8.
# [5] = test system: TLR7; assay: TLR agonist IL-8 production in primary human neutrophils, TLR7; assay type: cell-based; details: polyU, 5-24 h
# Description: as §1
# [6] = biological target: T1, TLR9 (Mus musculus, UniProt Q9EQU3); assay: TLR agonist TNFα production in RAW 264.7 cells, TLR9; assay type: cell-based; details: CpG rich DNA, 24 h
# T1 construct: endogenous in cells; host or cells: RAW 264.7
# T1 sequence (Q9EQU3 26-1032): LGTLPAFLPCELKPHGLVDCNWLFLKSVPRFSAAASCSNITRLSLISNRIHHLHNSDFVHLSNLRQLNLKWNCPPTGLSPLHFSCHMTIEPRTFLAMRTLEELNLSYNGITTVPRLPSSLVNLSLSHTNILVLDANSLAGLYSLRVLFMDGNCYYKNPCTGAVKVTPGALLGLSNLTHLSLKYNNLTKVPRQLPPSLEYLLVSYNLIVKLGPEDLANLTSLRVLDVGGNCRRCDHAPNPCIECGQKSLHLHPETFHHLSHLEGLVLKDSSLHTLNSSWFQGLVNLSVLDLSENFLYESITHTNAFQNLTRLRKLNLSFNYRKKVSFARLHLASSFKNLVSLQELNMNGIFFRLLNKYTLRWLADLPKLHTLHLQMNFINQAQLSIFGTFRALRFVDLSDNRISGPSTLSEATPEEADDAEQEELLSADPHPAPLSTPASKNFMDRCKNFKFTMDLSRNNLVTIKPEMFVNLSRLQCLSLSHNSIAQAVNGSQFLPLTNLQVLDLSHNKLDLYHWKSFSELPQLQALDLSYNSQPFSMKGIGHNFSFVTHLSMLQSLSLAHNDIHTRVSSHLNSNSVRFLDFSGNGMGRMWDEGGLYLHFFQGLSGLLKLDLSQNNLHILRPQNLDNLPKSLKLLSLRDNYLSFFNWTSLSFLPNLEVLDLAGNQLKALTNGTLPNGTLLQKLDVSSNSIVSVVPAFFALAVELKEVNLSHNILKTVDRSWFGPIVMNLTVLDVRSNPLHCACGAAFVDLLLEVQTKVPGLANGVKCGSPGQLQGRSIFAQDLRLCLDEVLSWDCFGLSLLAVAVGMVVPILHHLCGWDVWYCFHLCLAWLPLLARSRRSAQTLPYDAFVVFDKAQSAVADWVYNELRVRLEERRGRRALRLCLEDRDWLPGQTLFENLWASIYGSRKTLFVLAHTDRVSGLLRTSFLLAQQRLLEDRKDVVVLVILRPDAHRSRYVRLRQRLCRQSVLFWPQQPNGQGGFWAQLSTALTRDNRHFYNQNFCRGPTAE
# Description: In this experiment, multiple TLRs were stimulated with defined TLR agonists for 24 h and the TNFα production was measured. In each case, the maximal stimulation by agonist is set at 100% and the antagonism by POPG is expressed as the relative % response. The Controls consist of no treatment, or treatment with POPG in the absence of agonist as indicated. The agonists for the TLRs consist of Pam3Cys for TLR1/2, Mycoplasma pneumoniae membranes as an agonist for TLR2, mycoplasma derived MALP2 as an agonist for TLR 2/6, double stranded RNA (poly IC) for TLR3, Gram-negative lipopolysaccharide for TLR4, and CpG rich DNA as an agonist for TLR9. The TLR4 panel also contains the antagonist polymyxin B (PB) for comparison with POPG.
smiles,measurement,setting,value
"CCCCCCCC/C=C\CCCCCCCC(=O)O[C@H](COC(=O)CCCCCCCCCCCCCCC)COP(=O)(O)OCC(O)CO (stereo partly drawn) [POPG, palmitoyl-oleoyl-phosphatidylglycerol]",activation of primary bronchial epithelial cells by multiple TLRs (IL-8),[1],inhibits activation
same,viral replication,[2],prevents viral replication
same,KC levels in BALF,[3],significantly attenuated
same,MIP-2 levels in BALF,[3],significantly attenuated
same,TNF-α secretion in BALF,[3],significantly inhibited
same,infiltration of neutrophils in BALF,[3],effectively inhibited
same,activity of TLR8 (IL-8 production),[4],inhibits
same,activity of TLR7 (IL-8 production),[5],inhibits
same,activity of TLR9 (TNFα production),[6],not
